Data from ChEMBL document CHEMBL3596185, “Combining Mass Spectrometric Metabolic Profiling with Genomic Analysis: A Powerful Approach for Discovering Natural Products from Cyanobacteria” (J Nat Prod, 2015).

Tests used:
[1] = molecular target: Cannabinoid receptor 1 (Homo sapiens, UniProt P21554); experiment: Displacement of [3H]-CP55940 from human recombinant CB1 receptor expressed in HEK293 cells after 90 mins by scintillation counting analysis; format: cell-based
[2] = molecular target: Cannabinoid receptor 2 (Homo sapiens, UniProt P34972); experiment: Displacement of [3H]-CP55940 from human recombinant CB2 receptor expressed in HEK293 cells after 90 mins by scintillation counting analysis; format: cell-based
[3] = species: Homo sapiens; experiment: Selectivity ratio of Ki for human recombinant CB2 receptor to Ki for human recombinant CB1 receptor

Cannabinoid receptor 1, sequence (P21554 whole entry): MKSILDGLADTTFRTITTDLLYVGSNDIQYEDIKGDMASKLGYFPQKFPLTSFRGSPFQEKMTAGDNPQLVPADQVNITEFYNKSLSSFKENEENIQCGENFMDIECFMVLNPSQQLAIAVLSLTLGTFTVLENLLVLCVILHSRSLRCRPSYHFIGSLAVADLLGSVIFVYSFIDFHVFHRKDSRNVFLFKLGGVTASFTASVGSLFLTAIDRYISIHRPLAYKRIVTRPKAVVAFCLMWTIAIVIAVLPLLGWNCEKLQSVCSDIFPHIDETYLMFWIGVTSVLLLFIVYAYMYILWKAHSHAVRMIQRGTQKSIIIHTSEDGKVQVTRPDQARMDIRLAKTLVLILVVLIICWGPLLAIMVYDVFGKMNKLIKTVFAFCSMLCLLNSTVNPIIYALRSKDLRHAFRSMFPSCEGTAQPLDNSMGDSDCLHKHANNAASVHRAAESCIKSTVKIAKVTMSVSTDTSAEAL
Cannabinoid receptor 2, sequence (P34972 whole entry): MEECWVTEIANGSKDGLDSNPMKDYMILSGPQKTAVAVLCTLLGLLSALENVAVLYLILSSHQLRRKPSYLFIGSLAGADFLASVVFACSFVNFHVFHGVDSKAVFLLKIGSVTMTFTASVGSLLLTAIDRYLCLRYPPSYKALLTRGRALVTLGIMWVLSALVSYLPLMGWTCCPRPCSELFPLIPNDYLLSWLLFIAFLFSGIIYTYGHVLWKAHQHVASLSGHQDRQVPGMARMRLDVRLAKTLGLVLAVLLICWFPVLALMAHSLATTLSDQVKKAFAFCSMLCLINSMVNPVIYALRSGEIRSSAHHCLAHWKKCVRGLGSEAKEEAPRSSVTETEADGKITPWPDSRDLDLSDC

Row | SMILES | Ki [1] | Ki [2] | Ratio Ki [3]
1 | C=CCCC/C=C/C=C(\C)CCCC/C=C/CC/C=C\C(=O)NC(CO)CO | 0.47 µM |  | 
2 | COC[C@@H](COC(C)=O)N(C)C(=O)CC/C=C/CCCCC(Cl)CCCCCCCl (some centres not stated) | 0.59 µM | 1.03 µM | 2
3 | COC[C@@H](COC(C)=O)N(C)C(=O)CC/C=C/CCCCC(Cl)CCCCCC(Cl)Cl (some centres not stated) | 0.41 µM | 0.86 µM | 2
